{
  "source": "patent US10174384B2",
  "about": "“Use of the ZMIZ1 marker in directing treatment and predicting survival in cancer” (THE JOHNS HOPKINS UNIVERSITY, priority 2015, dated 2019)",
  "tested_on": "U251 cell line",
  "assay": "Cell titer glo viability, siRNA combined with temozolamide",
  "assay_type": "cell-based",
  "conditions": "three days post treatment, combined with 1 mM temozolamide, p<0.0001 vs siRNA alone, P<0.01 vs temozolamide alone",
  "excerpt": "siRNA s32836 targeting both the full ZMIZ1 transcript (uc001kaf.2) and the truncated ZMIZ1 transcript (uc001kag.2) was purchased from Life Technologies (Grand Island, N.Y., USA), and two custom designed Stealth siRNAs (referred to as 56 and 62) targeting specifically uc001kag.2 were designed (Life Technologies) for all in vitro assays. The sequence of stealth_56 is Sense: […] (SEQ ID NO:23), Anti-Sense: […] (SEQ ID NO:24), the sequence for stealth_62 is Sense: […] (SEQ ID NO:25), Anti-Sense: […] (SEQ ID NO:26). Appropriate scrambled siRNAs were used as controls. Hyper-expressing plasmids were designed for both the full and the truncated plasmids. Appropriate empty vector was used as control for all in vitro assays described. Cells were transfected using Lipofectamine 2000 and the respective siRNA or plasmid and were treated for 6 h. The media was changed after 6 h and the regular culture media was subsequently used.\nU87 and U251 GBM cell lines were treated with varying doses of temozolamide (Sigma Aldrich, St Louis, Mo.). 1000 cells/well were seeded in a 96 well plate. […] Cells were followed for 3 days, and at the third day, viability was assessed with the cell titer glo assay.",
  "data": [
    {"substance": "56 siRNA: custom designed Stealth siRNA targeting specifically uc001kag.2; Sense SEQ ID NO:23, Anti-Sense SEQ ID NO:24 (sense CCGGUGCAACUUCUAGCCUUGUUGU; antisense ACAACAAGGCUAGAAGUUGCACCGG; Stealth siRNA, chemical modification pattern not given here)", "values": [
      {"measurement": "viability, combination compared to siRNA alone or temozolamide alone", "result": "statistically significant decrease in viability"}
    ]}
  ]
}
